Data on 1 compound can be found in US20220339214A1, “KIRIN FRUIT FERMENTATION AND METHODS FOR IMPROVING METABOLISM BY USING THE SAME” (TCI CO., LTD., priority 2021, published 2022).

In test [1] the test system is mouse myoblasts C2C12. Nature of the test: Proliferation of skeletal muscle cells (Click-iT Plus EdU, flow cytometry). It counts as cell-based. The settings on record: 24 h. The source says:
Experimental cell strain: mouse myoblasts C2C12 (hereinafter referred to as C2C12 cells) of the C2C12 cell strain (ATCC CRL-1772™) purchased from the American Type Culture Collection (ATCC®).
Culture medium: Dulbecco's modified Eagle's medium, purchased from Gibco, US, Gat.11965-092. 10% of fetal bovine serum (FBS), purchased from Gibco, US, Gat.10437-028. 1% of antibiotic, purchased from Gibco, US, Gat.15240-062.
Reagents: 10×DPBS buffer (purchased from Gibco, Gat 14200-075), trypan blue dead cell dye (purchased from Lonza, Cat 17-942E), trypsin-EDTA (purchased from Gibco, Cat. 15400-054), and cell proliferation Click-iT™ Plus EdU kit (Invitrogen; Cat. C10632).
First, 1×10^5 cells were inoculated into each well of a 6-well culture plate to culture at 37° C. for 24 h. The cultured cells were divided into three groups: an experimental group, a blank group, and a control group.
Blank group: only a culture medium was added to culture at 37° C. for 24 h.
Control group: 10% of PBS was added to culture at 37° C. for 24 h, which was used as a positive control group. […]
Next, the specific reagent EdU from the cell proliferation kit was added to culture for 2 h. […] Finally, the fluorescence signal of the to-be-tested cell solution in each well was measured by the flow cytometry (under 488 nm of excitation light and 530/30 nm of scattered light), and the quantity of cells was calculated. […]

For test [2], the system named is mouse myoblasts C2C12. Nature of the test: Activity of mitochondria in skeletal muscle cells affected by active substances (fluorescence picture). It counts as cell-based. To be noted: 100 nM, 24 h, compared with blank group. How it is done:
The experimental medium was removed from the culture plate, and the culture plate was washed with 1 mL of 1×PBS for two times. […] was added into each well to react for 5 min in the dark. After the reaction was completed, a cell medium was added to stop the reaction. The cells and cell medium in each well were collected in a 1.5 mL centrifuge tube, and the centrifuge tube containing the cells and cell medium was centrifuged at 400×g for 5 min. After the centrifugation, a supernatant was removed. The cells were washed with 1×DPBS, and then the centrifuge tube containing the cells was centrifuged again at 400×g for 5 min. After the centrifugation again, a supernatant was removed from each centrifuge tube, and 100 μL of JC-1 dye was added into each centrifuge tube and left to stand for 15 min in the dark. After 15 min, each centrifuge tube was centrifuged at 400×g for 5 min. […] Finally, the fluorescence signal of the to-be-tested cell solution in each well was measured by the flow cytometry (excitation light: 488 nip and scattered light: 527 nm & 590 nm), and the membrane potential of mitochondria was calculated, to analyze the activity of mitochondria. […] Finally, a picture of the fluorescence signal of the to-be-tested cell solution was taken by a. camera to observe the activity of mitochondria.

Turning to `O[C@H]1[C@H](O)[C@@H](O)[C@H](O)[C@@H](O)[C@H]1O` [TCI-GHU-01, myo-inositol], the “increase of quantity of skeletal muscle cells” value in test [1] (100 nM, vs blank group) turned out to be 48.2%. For the same compound, in test [1] (TCI-GHU-01 100 nM, positive control 10%, blank group regarded as 100%), the “quantity of skeletal muscle cells relative to the blank group” value is given as 148.2%. Moreover, the “activity of mitochondria in skeletal muscle cells (small light spots around the nuclei)” value in test [2] was “higher than that of the blank group”.
